This is an account of results in US10029990B2, “Agent for inducing endogenous interferon” (priority 2010, dated 2018).

Molecules are shown by their SMILES.

Data set [1] deals with endogenous interferon. Briefly: Interferon inducing activity in vivo during intragastric administration to mice. The settings on record: 1000 μg/mouse, background 7-10 units.
Data set [2] concerns endogenous interferon. Briefly: Interferon inducing activity in vivo during oral administration to mice. The settings on record: 5.0 mg/mouse, background 7-10 units.
A short description of data set [3]: Concentration in blood plasma of rabbits during vaginal administration (vaginal suppositories 0.1 g). Type of data set: in vivo. As for the experimental part:
Concentration in blood plasma of the experimental animals during vaginal administration of the inventive substance.
The results of measuring the concentration of the substance in blood plasma of rabbits during vaginal administration in the form of “vaginal suppositories 0.1 g” are shown on the provided diagram in the form of averaged pharmacokinetic curves (see FIG. 1). After inserting the suppository, the substance began to enter the general blood circulation after approximately 15 minutes; after 1 hour the concentration of the substance in the blood reached its maximum (approximately 120 μg/ml); then it was gradually excreted from the organism, and 24 hours after its administration the detected presence of the substance in blood plasma was minimal (approximately 20 μg/ml). The dispersion of individual values was moderate: coefficient of variation CV amounted to 13-22%.

`COC(=O)c1cccc(Nc2cc(=O)[nH]c(=O)[nH]2)c1` [The inventive substance, monomer, 6-(3-methoxycarbonylphenyl) amino-2,4 (1H, 3H)-pyrimidinedione]: the “Interferon inducing activity, 2 hours” value came out at 30 IU in data set [1] (2 hours) and 18 IU in data set [2] (2 hours). The “Interferon inducing activity, 4 hours” value is 10 IU in data set [1] (4 hours) and 120 IU in data set [2] (4 hours). In addition, the “Interferon inducing activity, 6 hours” value in data set [1] (6 hours) is recorded as 160 IU; in data set [2] (6 hours) it was 20 IU. Further, the “Interferon inducing activity, 8 hours” value in data set [1] (8 hours) is reported as 25-30 IU; in data set [2] (8 hours), 40 IU. Moreover, the “Interferon inducing activity, 24 hours” value in data set [1] (24 hours) is 30 IU; in data set [2] (24 hours) it was 100 IU. The “Time at which concentration in the blood reached its maximum” value in data set [3] was 1 h. Further, the “Time until the substance began to enter the general blood circulation” value in data set [3] was “approximately 15 minutes”. In addition, the “Maximum concentration of the substance in the blood” value in data set [3] (after 1 hour) is given as “approximately 120 μg/ml”. For the same compound, in data set [3] (rabbit, plasma, other: vaginal, 24 hours, read-out: Concentration of the substance in blood plasma 24 hours after administration), the concentration at 24 h was about 20000 ng/mL.
